In paper PMC3568144, “Pseudomonas aeruginosa PA1006 Is a Persulfide-Modified Protein That Is Critical for Molybdenum Homeostasis” (PLoS ONE, 2013):

Assays:
[1] = biological target: T1, His6-PA3667/CsdA (Pseudomonas aeruginosa, UniProt Q9HXX3); experiment: absorption spectrum of purified enzyme (~[…] nm band, reducible with sodium borohydride); format: binding; conditions: 100 µM cofactor in purification and storage buffers
T1 construct: gene csd; full length, His6 tag kept, pET24D, E. coli BL21pLysS, Ni-NTA and MonoQ; dimer (~100 kDa) by gel filtration
T1 sequence (Q9HXX3 1-401): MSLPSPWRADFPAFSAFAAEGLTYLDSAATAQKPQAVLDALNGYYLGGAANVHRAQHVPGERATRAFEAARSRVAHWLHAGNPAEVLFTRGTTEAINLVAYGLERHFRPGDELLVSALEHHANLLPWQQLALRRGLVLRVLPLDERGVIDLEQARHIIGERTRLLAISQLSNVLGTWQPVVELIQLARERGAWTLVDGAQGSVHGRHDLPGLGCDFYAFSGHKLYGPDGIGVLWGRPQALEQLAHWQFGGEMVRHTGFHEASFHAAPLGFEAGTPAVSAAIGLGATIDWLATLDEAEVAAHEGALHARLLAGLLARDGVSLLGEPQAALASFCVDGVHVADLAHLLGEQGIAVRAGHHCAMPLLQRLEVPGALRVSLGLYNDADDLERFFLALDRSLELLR

[2] = biological target: T1, His6-PA3667/CsdA; experiment: […] transfer to the enzyme, non-reducing SDS-PAGE with phosphorimaging; format: biochemical; conditions: labelled compound; 50 µM 35S Cys, 2 µM enzyme, pH 7.5, 37°C, 10 min
[3] = biological target: the molecule itself; experiment: SEC; analytical gel filtration, Superose 6 column (GE Life Sciences), FPLC

Molecule: Cc1ncc(COP(=O)(O)O)c(C=O)c1O [pyridoxal phosphate]
- absorption spectrum of purified enzyme (~400 nm band, reducible with sodium boro) [1]: absorbance spectrum of His6-PA3667/CsdA indicated that it contained a pyridoxal phosphate cofactor

Molecule: N[C@@H](CS)C(=O)O [Cys]
- 35S transfer to the enzyme, non-reducing SDS-PAGE with phosphorimaging [2]: PA3667/CsdA displayed Cys desulfurase activity and was capable of transferring

B1: His6-PA3667/CsdA purified from E. coli (enzyme, Pseudomonas aeruginosa, UniProt Q9HXX3 1-401, looked up)
chain: T1 sequence (Q9HXX3 1-401)
notes: PA3667/CsdA, cysteine desulfurase, Pseudomonas aeruginosa; Contains a pyridoxal phosphate cofactor; 100 µM pyridoxal phosphate was added to the buffers; source: E. coli BL21pLysS (pET24D), purified (Ni2+-NTA agarose, MonoQ)
- stoichiometry N [3]: 2
